Source: publication PMC6017250, “Novel Inhibitor Discovery of Staphylococcus aureus Sortase B and the Mechanism Confirmation via Molecular Modeling” (Molecules : A Journal of Synthetic Chemistry and Natural …, 2018)
pKd: −log10 of the molar value.

Experiments:
Assay type in all cases: binding
[1] = biological target: T1, Sortase B (SrtBΔ30) (Staphylococcus aureus, UniProt Q2FZE3, N116A); assay: fluorescence spectroscopy quenching (association constant KA)
T1 construct: gene srtB; SrtBΔ30
T1 sequence (Q2FZE3 31-244 N116A): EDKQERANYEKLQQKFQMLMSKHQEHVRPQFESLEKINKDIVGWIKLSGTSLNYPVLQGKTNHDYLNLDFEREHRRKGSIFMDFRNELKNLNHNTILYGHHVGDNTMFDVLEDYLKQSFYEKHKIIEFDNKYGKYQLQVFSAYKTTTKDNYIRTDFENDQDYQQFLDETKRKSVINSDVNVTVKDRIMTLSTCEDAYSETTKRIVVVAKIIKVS
From the text: (§1) fluorescence spectroscopy quenching (association constant KA) on Sortase B (SrtBΔ30) | the binding constants (KA) of the ligand with the mutant proteins were lower

[2] = biological target: T2, Sortase B (SrtBΔ30) (Staphylococcus aureus, UniProt Q2FZE3, I182A); assay: as above
T2 construct: gene srtB; SrtBΔ30
T2 sequence (Q2FZE3 31-244 I182A): T1 sequence (Q2FZE3 31-244 N116A)
From the text: as §1

[3] = biological target: T3, Sortase B (SrtBΔ30) (Staphylococcus aureus, UniProt Q2FZE3, R115A); assay: as above
T3 construct: gene srtB; SrtBΔ30
T3 sequence (Q2FZE3 31-244 R115A): T1 sequence (Q2FZE3 31-244 N116A)
From the text: as §1

[4] = biological target: T4, Sortase B (SrtBΔ30, WT) (Staphylococcus aureus, UniProt Q2FZE3); assay: fluorescence spectroscopy quenching (association constant KA); also FRET peptide-cleavage inhibition of the purified enzyme, IC50 […]
T4 construct: gene srtB; SrtBΔ30

c1c2c(cc3c1OCO3)-c1cc3ccc4c(c3c[n+]1CC2)OCO4 [coptisine]
pKd [1]: 4.96 | pKd [2]: 4.89 | pKd [3]: 4.92 | pKd [4]: 5.13
